Data on 3 compounds can be found in US9347934B2, “Assays for identifying compounds that modulate bitter taste” (CHROMOCELL CORPORATION, priority 2011, dated 2016).

Structures are written as SMILES.

Common to all, as to assay type: cell-based
One assay deals with T1, TAS2R16 (Homo sapiens, UniProt Q9NYV7).
T1 construct: expressed in transfected cells
T1 sequence (Q9NYV7 1-291): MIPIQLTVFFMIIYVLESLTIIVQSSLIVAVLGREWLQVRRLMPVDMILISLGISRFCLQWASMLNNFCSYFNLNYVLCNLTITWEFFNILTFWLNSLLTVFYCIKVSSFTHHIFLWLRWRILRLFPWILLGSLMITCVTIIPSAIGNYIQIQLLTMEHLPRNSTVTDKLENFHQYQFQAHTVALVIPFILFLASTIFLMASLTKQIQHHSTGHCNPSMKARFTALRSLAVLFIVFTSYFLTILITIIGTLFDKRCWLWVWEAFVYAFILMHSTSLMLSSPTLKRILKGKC
As to the kind of experiment: Calcium fluorescence functional assay, TAS2R16 cell line. The note with it: 20 mM tastant; cell line expressing human TAS2R16 and mouse Gα15. The protocol:
(§1) Accordingly, each cell line of the panel expressed a human bitter taste receptor and mouse Gα15 signaling protein.
(§2) Probenecid was not included in the load solution.
(§3) After dye loading, cell plates were placed in a fluorescent plate reader (e.g., FDSS6000 (Hamamatsu, Japan)) and receptor stimulation was measured by adding 50 ul of 3× concentrated ligand/agonist stock. Fluorescence was monitored continuously for 10 s before agonist addition and for 100-250 s after stimulation with agonist.
(§4) Receptor Activation is defined as follows: % Activation=[((Maximum signal fluorescence−Minimum signal fluorescence)−(Maximum control fluorescence−Minimum control fluorescence))/(Maximum buffer fluorescence−Minimum buffer fluorescence)]*100 Functional Response=[(Maximum signal fluorescence−Minimum signal fluorescence)−(Maximum control fluorescence−Minimum control fluorescence)] • Signal Fluorescence: refers to the change in fluorescence seen with addition of ligand • Control fluorescence: refers to the change in fluorescence seen with addition of buffer (negative control) • Calcium signals from ligand and control were normalized to the basal fluorescence of the cells prior to the stimulation.
(§5) A concentration analysis was performed and EC50 values were calculated by nonlinear regression using the formula: Y=Bottom+(Top-Bottom)/(1+10^((Log EC50-X)*Hill Slope)), X=log of dose or concentration, Y=Response (increasing as X increases), Top=maximum signal, Bottom=minimum signal.

In a further assay the target is T2, TAS2R60 (Homo sapiens, UniProt P59551).
T2 construct: expressed in transfected cells
T2 sequence (P59551 1-318): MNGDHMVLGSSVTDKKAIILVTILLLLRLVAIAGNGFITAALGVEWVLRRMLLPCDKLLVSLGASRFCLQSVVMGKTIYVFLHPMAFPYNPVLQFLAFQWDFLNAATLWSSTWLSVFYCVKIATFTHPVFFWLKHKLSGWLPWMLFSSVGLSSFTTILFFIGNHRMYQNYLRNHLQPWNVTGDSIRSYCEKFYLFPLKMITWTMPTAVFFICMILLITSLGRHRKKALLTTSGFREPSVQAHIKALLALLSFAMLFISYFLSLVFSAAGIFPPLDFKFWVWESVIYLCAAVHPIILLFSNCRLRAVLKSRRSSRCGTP
The experiment in a line: Calcium fluorescence functional assay, TAS2R60 cell line. The note with it: for TAS2R60 bitter taste receptor activity (changes in intracellular calcium): 20 mM tastant, cell line expressing human TAS2R60 and mouse Gα15. The method, then: as §1, §2, §3, §4, §5
(A change in cytosolic calcium serves as a functional read-out for many receptors and channels.)

A further assay has as its target T3, TAS2R10 (Homo sapiens, UniProt Q9NYW0).
T3 construct: expressed in transfected cells
T3 sequence (Q9NYW0 1-307): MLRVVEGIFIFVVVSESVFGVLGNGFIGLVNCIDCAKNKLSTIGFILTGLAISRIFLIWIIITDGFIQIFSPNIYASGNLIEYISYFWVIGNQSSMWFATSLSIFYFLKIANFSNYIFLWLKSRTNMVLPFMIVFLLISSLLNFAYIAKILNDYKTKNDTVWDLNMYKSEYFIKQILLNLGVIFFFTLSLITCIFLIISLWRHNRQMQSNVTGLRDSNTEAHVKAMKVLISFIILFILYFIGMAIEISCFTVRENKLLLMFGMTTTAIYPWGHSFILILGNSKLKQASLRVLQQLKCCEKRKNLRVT
The experiment in a line: Calcium fluorescence functional assay, TAS2R10 cell line. As to conditions: 20 mM tastant; cell line expressing human TAS2R10 and mouse Gα15. The protocol:
as §1, §2, §3, §4, §5

In the next assay the target is T4, TAS2R3 (Homo sapiens, UniProt Q9NYW6).
T4 construct: expressed in transfected cells
T4 sequence (Q9NYW6 1-316): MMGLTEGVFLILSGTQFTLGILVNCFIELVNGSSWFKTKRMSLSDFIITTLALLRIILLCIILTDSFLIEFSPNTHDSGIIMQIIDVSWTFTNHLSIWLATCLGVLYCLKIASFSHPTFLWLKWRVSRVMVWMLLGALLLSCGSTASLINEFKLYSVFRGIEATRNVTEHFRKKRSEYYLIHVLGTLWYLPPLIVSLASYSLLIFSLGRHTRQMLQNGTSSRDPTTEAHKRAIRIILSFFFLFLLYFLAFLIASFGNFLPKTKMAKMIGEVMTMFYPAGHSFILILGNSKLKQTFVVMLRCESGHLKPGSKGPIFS
The experiment in a line: Calcium fluorescence functional assay, TAS2R3 cell line. The note with it: 20 mM tastant; cell line expressing human TAS2R3 and mouse Gα15. The method, then:
as §1, §2, §3, §4, §5

The target in the next assay is T5, TAS2R50 (Homo sapiens, UniProt P59544).
T5 construct: expressed in transfected cells
T5 sequence (P59544 1-299): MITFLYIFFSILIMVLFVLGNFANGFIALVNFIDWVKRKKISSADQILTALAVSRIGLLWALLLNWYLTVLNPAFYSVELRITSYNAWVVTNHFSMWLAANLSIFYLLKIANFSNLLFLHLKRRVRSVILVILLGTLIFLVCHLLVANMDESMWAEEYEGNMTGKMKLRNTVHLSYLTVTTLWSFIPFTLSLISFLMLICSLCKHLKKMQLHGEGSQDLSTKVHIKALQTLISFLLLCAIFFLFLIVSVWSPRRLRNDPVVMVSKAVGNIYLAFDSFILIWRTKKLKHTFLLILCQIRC
As to the kind of experiment: Calcium fluorescence functional assay, TAS2R50 cell line. The note with it: 20 mM tastant; cell line expressing human TAS2R50 and mouse Gα15. The protocol:
as §1, §2, §3, §4, §5

The target of another assay is T6, TAS2R7 (Homo sapiens, UniProt Q9NYW3).
T6 construct: expressed in transfected cells
T6 sequence (Q9NYW3 1-318): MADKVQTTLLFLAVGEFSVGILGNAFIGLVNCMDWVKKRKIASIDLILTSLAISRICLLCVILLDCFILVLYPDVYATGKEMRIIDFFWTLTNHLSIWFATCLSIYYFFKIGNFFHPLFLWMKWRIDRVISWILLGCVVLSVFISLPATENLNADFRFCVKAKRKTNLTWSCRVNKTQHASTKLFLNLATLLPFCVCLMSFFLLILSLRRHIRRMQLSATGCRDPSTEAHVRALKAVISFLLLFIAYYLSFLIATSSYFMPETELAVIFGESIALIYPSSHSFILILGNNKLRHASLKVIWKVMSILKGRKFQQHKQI
The experiment in a line: Calcium fluorescence functional assay, TAS2R7 cell line. As to conditions: 20 mM tastant; cell line expressing human TAS2R7 and mouse Gα15. The method, then:
as §1, §2, §3, §4, §5

Take `CC(O)C(=O)[O-].[K+]` (stereo not shown) [Potassium lactate, potassium lactate]: the “TAS2R16 bitter taste receptor activity (changes in intracellular calcium)” value on TAS2R16 is on record as “did not induce”. Further, the “TAS2R60 bitter taste receptor activity (changes in intracellular calcium)” value at TAS2R60 was “induced”. In addition, at TAS2R10, the “TAS2R10 bitter taste receptor activity (changes in intracellular calcium)” value is “did not induce”. For the same compound, at TAS2R3, the “TAS2R3 bitter taste receptor activity (changes in intracellular calcium)” value is recorded as “did not induce”. The “TAS2R50 bitter taste receptor activity (changes in intracellular calcium)” value on TAS2R50 was “did not induce”. Further, the “TAS2R7 bitter taste receptor activity (changes in intracellular calcium)” value at TAS2R7 was “did not induce”.

For the compound `[Cl-].[K+]` [KCl, potassium chloride], at TAS2R16, the “TAS2R16 bitter taste receptor activity (changes in intracellular calcium)” value is “did not induce”. For the same compound, at TAS2R60, the “TAS2R60 bitter taste receptor activity (changes in intracellular calcium)” value was “induced”. Further, the EC50 (as a rule, the concentration at which the effect is half-maximal) at TAS2R60 (increasing concentrations of KCl, TAS2R60 cell line (FIG. 3), read-out: EC50 value, activation of TAS2R60) fell in the range of 5 to 15 mM. Further, on TAS2R10, the “TAS2R10 bitter taste receptor activity (changes in intracellular calcium)” value is “did not induce”. For the same compound, the “TAS2R3 bitter taste receptor activity (changes in intracellular calcium)” value on TAS2R3 is listed as “did not induce”. In addition, the “TAS2R50 bitter taste receptor activity (changes in intracellular calcium)” value on TAS2R50 is given as “did not induce”. Further, the “TAS2R7 bitter taste receptor activity (changes in intracellular calcium)” value at TAS2R7 was “did not induce”.

`CC1=CC(=O)NS(=O)(=O)O1` [Acesulfame K]: the “TAS2R16 bitter taste receptor activity (changes in intracellular calcium)” value at TAS2R16 is “induced”. In addition, the “TAS2R60 bitter taste receptor activity (changes in intracellular calcium)” value at TAS2R60 is “did not induce”. For the same compound, the “TAS2R10 bitter taste receptor activity (changes in intracellular calcium)” value on TAS2R10 is listed as “did not induce”. Besides, the “TAS2R3 bitter taste receptor activity (changes in intracellular calcium)” value at TAS2R3 is on record as “did not induce”. For the same compound, the “TAS2R50 bitter taste receptor activity (changes in intracellular calcium)” value at TAS2R50 is recorded as “did not induce”. For the same compound, on TAS2R7, the “TAS2R7 bitter taste receptor activity (changes in intracellular calcium)” value is “did not induce”.
